Laboratory results from patent US9833423B2 (KOREA RESEARCH INSTITUTE OF CHEMICAL TECHNOLOGY, priority 2011, dated 2017).
Values after ≈ are worked out from the molar mass of the structure shown. Read-outs that look alike come from different tables or passages of the source.

Experiments:
in vitro = details: human
Entero-virus 70 = assay: Cytopathic effect (CPE) inhibition assay; assay type: cell-based, Enterovirus 70; details: Enterovirus D, MRC5, 48 h; Table 3; MRC-5, 37° C., 2 days
Coxsackie-virus B1 = assay: Cytopathic effect (CPE) inhibition assay; assay type: cell-based, Coxsackievirus B1; details: Enterovirus B, HeLa37, 48 h, HeLa, 37° C., 2 days
Coxsackie-virus B3 = assay: Cytopathic effect (CPE) inhibition assay; assay type: cell-based, Coxsackievirus B3; details: Enterovirus B, HeLa37, 48 h, HeLa, 37° C., 2 days
Coxsackie-virus A24 (HG) = assay: Cytopathic effect (CPE) inhibition assay; assay type: cell-based, Coxsackievirus A24; details: Enterovirus C, MRC5, 48 h; Table 3; MRC-5, 37° C., 2 days
Polio-virus 3 = assay: microbe, parasite or virus in culture; assay type: cell-based, Poliovirus 3; details: Enterovirus C, HeLa37, 48 h, read-out: Polio-virus 3 EC50
[1] = Table 3, read-out: EC50 Coxsackie-virus B1
[2] = Table 3, read-out: EC50 Coxsackie-virus B3
[3] = Table 4, read-out: Coxsackie-virus B3 EC50
[4] = Table 4, read-out: Coxsackie-virus B1 EC50

CC(=O)Oc1cc(C)c(C)cc1C1(OC(C)=O)C(=O)c2ccccc2C1=O [Example 2, 2-(2-Acetoxy-1,3-dioxo-2,3-dihydro-1H-inden-2-yl)-4,5-dimethylphenyl acetate]
CC50 (in vitro; CC50): > 100 µg/mL | EC50 (Entero-virus 70): < 1 µg/mL | melting point: 206 to 207 °C

CC(=O)Oc1cc(C(C)(C)C)ccc1C1(OC(C)=O)C(=O)c2ccccc2C1=O [Example 15, 2-(2-Acetoxy-1,3-dioxo-2,3-dihydro-1H-inden-2-yl)-5-tert-butylphenyl acetate]
CC50 (in vitro; CC50): 8.26 µg/mL | EC50 (Coxsackie-virus B1; [1]): 0.015 µg/mL | melting point: 119 to 120 °C

CCC(=O)Oc1cc(C(C)C)ccc1C1(OC(=O)CC)C(=O)c2ccccc2C1=O [Example 21, 2-(1,3-Dioxo-2-(propionyloxy)-2,3-dihydro-1H-inden-2-yl)-5-isopropylphenyl propionate]
CC50 (in vitro; CC50): 16 µg/mL (≈ 39.2 µM) | EC50 (Coxsackie-virus B1; [1]): < 0.01 µg/mL | melting point: 123 to 125 °C

CCCC(=O)Oc1cc(C(C)C)ccc1C1(OC(=O)CCC)C(=O)c2ccccc2C1=O [Example 22, 2-(2-(Butyryloxy)-1,3-dioxo-2,3-dihydro-1H-inden-2-yl)-5-isopropylphenyl butyrate]
CC50 (in vitro; CC50): 33.8 µg/mL (≈ 77.4 µM) | EC50 (Coxsackie-virus B1; [1]): < 0.01 µg/mL | melting point: 98 to 102 °C

CC(C)c1ccc(C2(OC(=O)c3ccccc3)C(=O)c3ccccc3C2=O)c(O)c1 [Example 23, 2-(2-Hydroxy-4-isopropylphenyl)-1,3-dioxo-2,3-dihydro-1H-inden-2-yl benzoate]
CC50 (in vitro; CC50): 44.3 µg/mL (≈ 111 µM) | EC50 (Coxsackie-virus B1; [1]): < 0.01 µg/mL | melting point: 117 to 119 °C

CC(C)c1ccc(C2(O)C(=O)c3ccccc3C2=O)c(OC(=O)/C=C/c2ccccc2)c1 [Example 30, 2-(2-Hydroxy-1,3-dioxo-2,3-dihydro-1H-inden-2-yl)-5-isopropylphenyl cinnamate]
CC50 (in vitro; CC50): > 100 µg/mL | EC50 (Coxsackie-virus B1; [1]): < 0.01 µg/mL | melting point: 95 to 97 °C

COC(=O)NC1(c2ccc(C(C)C)cc2OC(=O)OC)C(=O)c2ccccc2C1=O [Example 48, Methyl 2-(4-isopropyl-2(methoxycarbonyloxy)phenyl)-1,3-dioxo-2,3-dihydro-1H-inden-2-yl carbamate]
EC50 (Coxsackie-virus B3; [2]): < 0.01 µg/mL | CC50 (in vitro; CC50): 46.7 µg/mL (≈ 114 µM) | EC50 (Coxsackie-virus B1; [1]): < 0.01 µg/mL

COc1cc(C(C)C)ccc1C1(NC(C)=O)C(=O)c2ccccc2C1=O [Example 54, N-(2-(4-Isopropyl-2-methoxyphenyl)-1,3-dioxo-2,3-dihydro-1H-inden-2-yl)acetamide]
CC50 (in vitro; CC50): > 117 µg/mL | EC50 (Coxsackie-virus B1; [1]): 0.0198 µg/mL (≈ 0.0563 µM) | melting point: 222 to 224 °C

CCC(=O)NC1(c2ccc(C(C)C)cc2OC(=O)CC)C(=O)c2ccccc2C1=O [Example 68, 2-(1,3-Dioxo-2-propionamido-2,3-dihydro-1H-inden-2-yl)-5-isopropylphenyl propionate]
EC50 (Coxsackie-virus B3; [2]): < 0.01 µg/mL | CC50 (in vitro; CC50): 66 µg/mL (≈ 162 µM) | EC50 (Coxsackie-virus B1; [1]): < 0.01 µg/mL | EC50 (Coxsackie-virus A24 (HG)): < 1 µg/mL | melting point: 173 to 175 °C

CC(C)c1ccc(C2(NC(=O)c3ccccc3)C(=O)c3ccccc3C2=O)c(OC(=O)c2ccccc2)c1 [Example 70, 2-(2-Benzamido-1,3-dioxo-2,3-dihydro-1H-inden-2-yl)-5-isopropylphenyl benzoate]
EC50 (Coxsackie-virus B3; [2]): < 0.01 µg/mL | CC50 (in vitro; CC50): > 117 µg/mL | EC50 (Coxsackie-virus B1; [1]): < 0.01 µg/mL | EC50 (Coxsackie-virus A24 (HG)): < 1 µg/mL | melting point: 138 to 140 °C

CCCC(=O)NC1(c2ccc(C(C)C)cc2OC(=O)CCC)C(=O)c2ccccc2C1=O [Example 76, Butyric acid 2-(2-butyrylamino-1,3-dioxo-indan-2-yl)-5-isopropyl-phenyl ester]
EC50 (Coxsackie-virus B3; [3]): < 0.04 µg/mL | CC50 (in vitro; Picorna-virus CC50): 45.1 µg/mL (≈ 104 µM) | EC50 (Coxsackie-virus B1; [4]): < 0.01 µg/mL

CCCCCC(=O)NC1(c2ccc(C(C)C)cc2OC(=O)CCCCC)C(=O)c2ccccc2C1=O [Example 78, Hexanoic acid 2-(2-hexanoylamino-1,3-dioxo-indan-2-yl)-5-isopropyl-phenyl ester]
EC50 (Coxsackie-virus B3; [3]): < 0.01 µg/mL | CC50 (in vitro; Picorna-virus CC50): 68.2 µg/mL (≈ 139 µM) | EC50 (Coxsackie-virus B1; [4]): < 0.01 µg/mL

CCCCCCC(=O)NC1(c2ccc(C(C)C)cc2OC(=O)CCCCCC)C(=O)c2ccccc2C1=O [Example 79, Heptanoic acid 2-(2-heptanoylamino-1,3-dioxo-indan-2-yl)-5-isopropyl-phenyl ester]
EC50 (Coxsackie-virus B3; [3]): < 0.01 µg/mL | CC50 (in vitro; Picorna-virus CC50): 8.94 µg/mL (≈ 17.2 µM) | EC50 (Coxsackie-virus B1; [4]): < 0.01 µg/mL

CCCCC(=O)NC1(c2ccc(C(C)C)cc2OC(=O)C(C)(C)C)C(=O)c2ccccc2C1=O [Example 80, 2,2-Dimethyl-propionic acid 2-(1,3-dioxo-2-pentanoylamino-indan-2-yl)-5-isopropyl-phenyl ester]
EC50 (Coxsackie-virus B3; [3]): < 0.01 µg/mL | CC50 (in vitro; Picorna-virus CC50): > 100 µg/mL | EC50 (Coxsackie-virus B1; [4]): < 0.01 µg/mL

CCCCC(=O)NC1(c2ccc(C(C)C)cc2OC(=O)CCCC)C(=O)c2cccc(N)c2C1=O (stereo not drawn) [Example 81, 2-(4-amino-1,3-dioxo-2-pentanamido-2,3-dihydro-1H-inden-2-yl)-5-isopropylphenyl pentanoate]
EC50 (Coxsackie-virus B3; [3]): < 0.01 µg/mL | CC50 (in vitro; Picorna-virus CC50): 41.3 µg/mL (≈ 86.2 µM) | EC50 (Coxsackie-virus B1; [4]): < 0.01 µg/mL | EC50 (Polio-virus 3): 0.012 µg/mL (≈ 0.0251 µM)

CCCCCC(=O)NC1(c2ccc(C(C)C)cc2OC(=O)CCCCC)C(=O)c2cccc(N)c2C1=O (stereo not drawn) [Example 82, 2-(4-Amino-2-hexanamido-1,3-dioxo-2,3-dihydro-1H-inden-2-yl)-5-isopropylphenyl hexanoate]
EC50 (Coxsackie-virus B3; [3]): < 0.02 µg/mL | CC50 (in vitro; Picorna-virus CC50): > 100 µg/mL | EC50 (Coxsackie-virus B1; [4]): < 0.01 µg/mL | EC50 (Polio-virus 3): 0.015 µg/mL (≈ 0.0296 µM)

CCCCCCC(=O)NC1(c2ccc(C(C)C)cc2OC(=O)CCCCCC)C(=O)c2cccc(N)c2C1=O (stereo not drawn) [Example 83, 2-(4-Amino-2-heptanamido-1,3-dioxo-2,3-dihydro-1H-inden-2-yl)-5-isopropylphenyl heptanoate]
EC50 (Coxsackie-virus B3; [3]): < 0.01 µg/mL | CC50 (in vitro; Picorna-virus CC50): > 100 µg/mL | EC50 (Coxsackie-virus B1; [4]): < 0.01 µg/mL

CCC(=O)NC1(c2ccc(C(C)C)cc2OC(=O)CC)C(=O)c2cccc(N)c2C1=O (stereo not drawn) [Example 84, 2-(4-Amino-1,3-dioxo-2-propionamido-2,3-dihydro-1H-inden-2-yl)-5-isopropylphenyl propionate]
EC50 (Coxsackie-virus B3; [3]): < 0.01 µg/mL | CC50 (in vitro; Picorna-virus CC50): > 100 µg/mL | EC50 (Coxsackie-virus B1; [4]): < 0.01 µg/mL

CCCC(=O)NC1(c2ccc(C(C)C)cc2OC(=O)CCC)C(=O)c2cccc(N)c2C1=O (stereo not drawn) [Example 85, 2-(4-Amino-2-butyramido-1,3-dioxo-2,3-dihydro-1H-inden-2-yl)-5-isopropylphenyl butyrate]
EC50 (Coxsackie-virus B3; [3]): < 0.03 µg/mL | CC50 (in vitro; Picorna-virus CC50): 45.9 µg/mL (≈ 102 µM) | EC50 (Coxsackie-virus B1; [4]): < 0.01 µg/mL | EC50 (Polio-virus 3): 0.015 µg/mL (≈ 0.0333 µM)

COC(=O)Oc1cc(C(C)C)ccc1C1(NC(C)=O)C(=O)c2ccccc2C1=O [Example 92, 2-(2-Acetamido-1,3-dioxo-2,3-dihydro-1H-inden-2-yl)-5-isopropylphenyl methyl carbonate]
EC50 (Coxsackie-virus B3; [3]): < 0.01 µg/mL | CC50 (in vitro; Picorna-virus CC50): 43.6 µg/mL (≈ 110 µM) | EC50 (Coxsackie-virus B1; [4]): < 0.01 µg/mL

CCCCC(=O)Oc1cc(C(C)C)ccc1C1(NC(C)=O)C(=O)c2ccccc2C1=O [Example 93, 2-(2-Acetamido-1,3-dioxo-2,3-dihydro-1H-inden-2-yl)-5-isopropylphenyl pentanoate]
EC50 (Coxsackie-virus B3; [3]): < 0.01 µg/mL | CC50 (in vitro; Picorna-virus CC50): 35.2 µg/mL (≈ 83.5 µM) | EC50 (Coxsackie-virus B1; [4]): < 0.01 µg/mL

CC(=O)Nc1ccc([N+](=O)[O-])c2c1C(=O)C(O)(c1cc(C)c(C)cc1NC(=O)C(C)C)C2=O (stereo not drawn) [Example 94, N-(2-(4-Acetamido-2-hydroxy-7-nitro-1,3-dioxo-2,3-dihydro-1H-inden-2-yl)-4,5-dimethylphenyl)isobutyramide]
EC50 (Coxsackie-virus B3; [3]): < 0.01 µg/mL | CC50 (in vitro; Picorna-virus CC50): 39.2 µg/mL (≈ 86.4 µM) | EC50 (Coxsackie-virus B1; [4]): < 0.01 µg/mL

CC(C)C(=O)Nc1cc(C(C)C)ccc1C1(O)C(=O)c2ccccc2C1=O [Example 95, N-(2-(2-Hydroxy-1,3-dioxo-2,3-dihydro-1H-inden-2-yl)-5-isopropylphenyl)isobutyramide]
EC50 (Coxsackie-virus B3; [3]): < 0.01 µg/mL | CC50 (in vitro; Picorna-virus CC50): 27.4 µg/mL (≈ 75.1 µM) | EC50 (Coxsackie-virus B1; [4]): < 0.01 µg/mL

CCCCOC(=O)Oc1cc(C(C)C)ccc1C1(NC(C)=O)C(=O)c2cccc(N)c2C1=O (stereo not drawn) [Example 96, 2-(2-Acetamido-4-amino-1,3-dioxo-2,3-dihydro-1H-inden-2-yl)-5-isopropylphenyl butyl carbonate2-(2-acetamido-4-amino-1,3-dioxo-2,3-dihydro-1H-inden-2-yl)-5-isopropylphenyl butyl carbonate]
EC50 (Coxsackie-virus B3; [3]): < 0.01 µg/mL | CC50 (in vitro; Picorna-virus CC50): 48.9 µg/mL (≈ 108 µM) | EC50 (Coxsackie-virus B1; [4]): < 0.01 µg/mL | EC50 (Polio-virus 3): 0.03 µg/mL (≈ 0.0663 µM)

CC(=O)NC1(c2ccc(C(C)C)cc2OC(=O)Oc2ccccc2)C(=O)c2ccccc2C1=O [Example 99, Carbonic acid 2-(2-acetylamino-1,3-dioxo-indan-2-yl)-5-isopropyl-phenyl ester phenyl ester]
EC50 (Coxsackie-virus B3; [3]): < 0.01 µg/mL | CC50 (in vitro; Picorna-virus CC50): 38.1 µg/mL (≈ 83.2 µM) | EC50 (Coxsackie-virus B1; [4]): < 0.01 µg/mL

CCOC(=O)Oc1cc(C(C)C)ccc1C1(NC(C)=O)C(=O)c2ccccc2C1=O [Example 101, 2-(2-Acetamido-1,3-dioxo-2,3-dihydro-1H-inden-2-yl)-5-isopropylphenyl ethyl carbonate]
EC50 (Coxsackie-virus B3; [3]): < 0.01 µg/mL | CC50 (in vitro; Picorna-virus CC50): 46 µg/mL (≈ 112 µM) | EC50 (Coxsackie-virus B1; [4]): < 0.01 µg/mL

CCOC(=O)N(C(C)=O)C1(c2ccc(C(C)C)cc2O)C(=O)c2ccccc2C1=O [Example 102, Ethyl acetyl(2-(2-hydroxy-4-isopropylphenyl)-1,3-dioxo-2,3-dihydro-1H-inden-2-yl)carbamate]
EC50 (Coxsackie-virus B3; [3]): < 0.01 µg/mL | CC50 (in vitro; Picorna-virus CC50): 42.5 µg/mL (≈ 104 µM) | EC50 (Coxsackie-virus B1; [4]): < 0.01 µg/mL

CCNC(=O)Oc1cc(C(C)C)ccc1C1(NC(C)=O)C(=O)c2cccc(N)c2C1=O (stereo not drawn) [Example 103, 2-(2-Acetamido-4-amino-1,3-dioxo-2,3-dihydro-1H-inden-2-yl)-5-isopropylphenyl ethylcarbamate]
EC50 (Coxsackie-virus B3; [3]): < 0.01 µg/mL | CC50 (in vitro; Picorna-virus CC50): 26.3 µg/mL (≈ 62 µM) | EC50 (Coxsackie-virus B1; [4]): < 0.01 µg/mL | EC50 (Polio-virus 3): 0.013 µg/mL (≈ 0.0307 µM)
